Assay results reported in patent US10710986B2, “PD-1/PD-L1 inhibitors” (Gilead Sciences, Inc., priority 2018, dated 2020).

Target: PD-1/PD-L1 (Homo sapiens (Human), UniProt Q9NZQ7)
Assay: PD-1/PD-L1 biochemical protein-protein interaction assay (ALPHA)
Conditions: 0.3 nM His tagged PD-L1, 2.5 nM biotinylated Fc-PD-1, 60 minutes at 25° C., read-out: IC50 PD-L1-PD1

PD-1/PD-L1, sequence (Q9NZQ7 19-238): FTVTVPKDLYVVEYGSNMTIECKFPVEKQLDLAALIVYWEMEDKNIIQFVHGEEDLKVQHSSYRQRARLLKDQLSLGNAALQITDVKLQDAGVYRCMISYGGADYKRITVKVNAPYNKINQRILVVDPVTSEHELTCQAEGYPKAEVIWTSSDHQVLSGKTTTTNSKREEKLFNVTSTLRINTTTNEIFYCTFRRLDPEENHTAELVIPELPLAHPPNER

IC50 [pM]	SMILES
542	COc1nc(-c2cccc(-c3cccc(-c4cnc(CNC[C@@H]5CCC(=O)N5)c(OC)n4)c3Cl)c2Cl)cnc1CNCCCc1nc2ccccc2[nH]1 [compound 419]
449	COc1nc(-c2cccc(-c3cccc(-c4cnc(CNC[C@@H]5CCC(=O)N5)c(OC)n4)c3Cl)c2Cl)cnc1CNCc1ncccn1 [compound 420]
603	COc1nc(-c2cccc(-c3cccc(-c4cnc(CNC5(c6ccccn6)CC5)c(OC)n4)c3Cl)c2Cl)cnc1CNC[C@@H]1CCC(=O)N1 [compound 421]
554	COc1nc(-c2cccc(-c3cccc(-c4cnc(CNC[C@@H]5CCC(=O)N5)c(OC)n4)c3Cl)c2Cl)cnc1CNCc1ccncc1 [compound 422]
237	COc1nc(-c2cccc(-c3cccc(-c4cnc(CN5C[C@H](O)C[C@H]5CO)c(OC)n4)c3Cl)c2Cl)cnc1CNC[C@@H]1CCC(=O)N1 [compound 423]
617	COc1nc(-c2cccc(-c3cccc(-c4cnc(CNC5(c6cccnc6)CC5)c(OC)n4)c3Cl)c2Cl)cnc1CNC[C@@H]1CCC(=O)N1 [compound 424]
414	COc1nc(-c2cccc(-c3cccc(-c4cnc(CNC[C@@H]5CCC(=O)N5)c(OC)n4)c3Cl)c2Cl)cnc1CNCc1cccnc1 [compound 425]
273	COc1nc(-c2cccc(-c3cccc(-c4cnc(CNCC5(O)CC5)c(OC)n4)c3Cl)c2Cl)cnc1CNC[C@@H]1CCC(=O)N1 [compound 426]
136	COc1nc(-c2cccc(-c3cccc(-c4cnc(CN5CC[C@@H](OC)C5)c(OC)n4)c3Cl)c2Cl)cnc1CNC[C@@H]1CCC(=O)N1 [compound 427]
272	COc1nc(-c2cccc(-c3cccc(-c4cnc(CNC(CO)(CO)CO)c(OC)n4)c3Cl)c2Cl)cnc1CNC[C@@H]1CCC(=O)N1 [compound 428]
349	COc1nc(-c2cccc(-c3cccc(-c4cnc(CNCC5(C#N)CC5)c(OC)n4)c3Cl)c2Cl)cnc1CNC[C@@H]1CCC(=O)N1 [compound 429]
71	COc1nc(-c2cccc(-c3cccc(-c4cnc(CN5CC[C@H](OC)C5)c(OC)n4)c3Cl)c2Cl)cnc1CNC[C@@H]1CCC(=O)N1 [compound 430]
124	COc1nc(-c2cccc(-c3cccc(-c4cnc(CN5CC[C@H](O)C5)c(OC)n4)c3Cl)c2Cl)cnc1CNC[C@@H]1CCC(=O)N1 [compound 431]
84	COc1nc(-c2cccc(-c3cccc(-c4cnc(CN[C@H]5C[C@](O)(CF)C5)c(OC)n4)c3Cl)c2Cl)cnc1CNC[C@@H]1CCC(=O)N1 [compound 432]
259	COc1nc(-c2cccc(-c3cccc(-c4cnc(CNC[C@@H]5CCC(=O)N5)c(OC)n4)c3Cl)c2Cl)cnc1CNCC1OCCO1 [compound 433]
64	COc1nc(-c2cccc(-c3cccc(-c4cnc(CNCC[C@@H]5CCC(=O)N5)c(OC)n4)c3Cl)c2Cl)cnc1CNCC[C@@H]1CCC(=O)N1 [compound 434]
64	COc1nc(-c2cccc(-c3cccc(-c4cnc(CNC[C@@H]5CCC(=O)N5)c(OC)n4)c3Cl)c2Cl)cnc1CNC[C@@H]1CNC(=O)C1 [compound 435]
5460	COc1nc(-c2cccc(-c3cccc(-c4cnc(CN)c(OC)n4)c3Cl)c2Cl)ccc1CN [compound 436]
86	COc1nc(-c2cccc(-c3cccc(-c4cnc(CN5CC6(CNC(=O)C6)C5)c(OC)n4)c3Cl)c2Cl)ccc1CN1CC2(CNC(=O)C2)C1 [compound 437]
1340	COc1nc(-c2cccc(-c3cccc(-c4cnc(CN5CC(OC)C5)c(OC)n4)c3Cl)c2Cl)ccc1CN1CC(OC)C1 [compound 438, 5-(2,2′-dichloro-3′-(6-methoxy-5-((3-methoxyazetidin-1-yl)methyl)pyridin-2-yl)-[1,1′-biphenyl]-3-yl)-3-methoxy-2-((3-methoxyazetidin-1-yl)methyl)pyrazine]
646	COc1nc(-c2cccc(-c3cccc(-c4cnc(CN5CC(O)C5)c(OC)n4)c3Cl)c2Cl)ccc1CN1CC(O)C1 [compound 439]
1870	COc1nc(-c2cccc(-c3cccc(-c4cnc(CNC[C@@H]5CCC(=O)N5)cn4)c3Cl)c2Cl)ccc1CNC[C@@H]1CCC(=O)N1 [compound 440]
64	COc1nc(-c2cccc(-c3cccc(-c4cnc(CN5CCC(c6cn[nH]c6)C5)c(OC)n4)c3Cl)c2Cl)cnc1CNC[C@@H]1CCC(=O)N1 (some centres unmarked) [compound 441]
146	COc1nc(-c2cccc(-c3cccc(-c4cnc(CN5CCC(C)(CO)C5)c(OC)n4)c3Cl)c2Cl)cnc1CNC[C@@H]1CCC(=O)N1 (some centres unmarked) [compound 442]
246	COc1nc(-c2cccc(-c3cccc(-c4cnc(CN5CCC(C)(OC)C5)c(OC)n4)c3Cl)c2Cl)cnc1CNC[C@@H]1CCC(=O)N1 (some centres unmarked) [compound 443]
74	COc1nc(-c2cccc(-c3cccc(-c4cnc(CN5CC6(CNC(=O)C6)C5)c(OC)n4)c3Cl)c2Cl)cnc1CN1CC(C)(O)C1 [compound 444]
69	COc1nc(-c2cccc(-c3cccc(-c4cnc(CN5CC6(CCC(=O)N6)C5)c(OC)n4)c3Cl)c2Cl)cnc1CN1CC(C)(O)C1 [compound 445]
138	COc1nc(-c2cccc(-c3cccc(-c4cnc(CN5CC(C)(O)C5)c(OC)n4)c3Cl)c2Cl)cnc1CNC[C@H]1CCC(=O)N1 [compound 446]

IC50 [pM]	SMILES
64	COc1nc(-c2cccc(-c3cccc(-c4cnc(CN5CC6(C5)CN(C(C)=O)C6)c(OC)n4)c3Cl)c2Cl)cnc1CN1CC(C)(O)C1 [compound 447]
64	COc1nc(-c2cccc(-c3cccc(-c4cnc(CN5CC(C)(O)C5)c(OC)n4)c3Cl)c2Cl)cnc1CN1CC[C@@H](CO)C1 [compound 448]
285	COc1nc(-c2cccc(-c3cccc(-c4cnc(CN5CC(C)(O)C5)c(OC)n4)c3Cl)c2Cl)cnc1CNCCO [compound 449]
64	COc1nc(-c2cccc(-c3cccc(-c4cnc5c(CN6CC7(CCC(=O)N7)C6)cn(C)c5c4)c3Cl)c2Cl)cnc1CN1CC2(CCC(=O)N2)C1 [compound 450]
101	COc1nc(-c2cccc(-c3cccc(-c4cnc5c(CN6CC7(C6)CN(C(C)=O)C7)cn(C)c5c4)c3Cl)c2Cl)cnc1CN1CC2(C1)CN(C(C)=O)C2 [compound 451]
86	CCC(=O)NC1CCN(Cc2ncc(-c3cccc(-c4cccc(-c5cnc(CNC[C@@H]6CCC(=O)N6)c(OC)n5)c4Cl)c3Cl)nc2OC)C1 (some centres unmarked) [compound 452]
139	COc1nc(-c2cccc(-c3cccc(-c4cnc(CN5CCCC5(C)CO)c(OC)n4)c3Cl)c2Cl)cnc1CNC[C@@H]1CCC(=O)N1 (some centres unmarked) [compound 453]
64	COc1nc(-c2cccc(-c3cccc(-c4cnc(CNCCOC(N)=O)c(OC)n4)c3Cl)c2Cl)cnc1CNCCOC(N)=O [compound 454]
145	COc1nc(-c2cccc(-c3cccc(-c4cnc(CNCc5cnn(CCO)c5)c(OC)n4)c3Cl)c2Cl)cnc1CNCc1cnn(CCO)c1 [compound 455]
186	COc1nc(-c2cccc(-c3cccc(-c4cnc(CNCc5cn[nH]c5)c(OC)n4)c3Cl)c2Cl)cnc1CNCc1cn[nH]c1 [compound 456]
172	COc1nc(-c2cccc(-c3cccc(-c4cnc(CN5CCC([C@H](C)O)CC5)c(OC)n4)c3Cl)c2Cl)cnc1CNC[C@@H]1CCC(=O)N1 [compound 457]
87	COc1nc(-c2cccc(-c3cccc(-c4cnc(CN[C@H]5CC[C@@H](C#N)C5)c(OC)n4)c3Cl)c2Cl)cnc1CNC[C@@H]1CCC(=O)N1 [compound 458]
344	COc1nc(-c2cccc(-c3cccc(-c4cnc(CN(C)C[C@H]5C[C@H](O)C5)c(OC)n4)c3Cl)c2Cl)cnc1CNC[C@@H]1CCC(=O)N1 [compound 459]
157	COCC1(CO)CCN(Cc2ncc(-c3cccc(-c4cccc(-c5cnc(CN6CCC(CO)(COC)C6)c(OC)n5)c4Cl)c3Cl)nc2OC)C1 (centres unmarked) [compound 460]
159	COc1nc(-c2cccc(-c3cccc(-c4cnc(CNC[C@@H]5CCC(=O)N5)c(OC)n4)c3Cl)c2Cl)cnc1CNCCc1nnc[nH]1 [compound 461]
346	COc1nc(-c2cccc(-c3cccc(-c4cnc(CN5CCC(c6nnc[nH]6)C5)c(OC)n4)c3Cl)c2Cl)cnc1CNC[C@@H]1CCC(=O)N1 (some centres unmarked) [compound 462]
76	COCC1(CO)CCN(Cc2ncc(-c3cccc(-c4cccc(-c5cnc(CNC[C@@H]6CCC(=O)N6)c(OC)n5)c4Cl)c3Cl)nc2OC)C1 (some centres unmarked) [compound 463]
110	COc1nc(-c2cccc(-c3cccc(-c4cnc(CN[C@H]5C[C@@H](C(N)=O)C5)c(OC)n4)c3Cl)c2Cl)cnc1CNC[C@@H]1CCC(=O)N1 [compound 464]
158	COc1nc(-c2cccc(-c3cccc(-c4cnc(CN[C@H]5C[C@H](C(N)=O)C5)c(OC)n4)c3Cl)c2Cl)cnc1CNC[C@@H]1CCC(=O)N1 [compound 465]
73	COc1nc(-c2cccc(-c3cccc(-c4cnc(CNC5CCN(C(N)=O)CC5)c(OC)n4)c3Cl)c2Cl)cnc1CNC1CCN(C(N)=O)CC1 [compound 466]
146	COc1nc(-c2cccc(-c3cccc(-c4cnc(CNCC5CCN(C(N)=O)C5)c(OC)n4)c3Cl)c2Cl)cnc1CNCC1CCN(C(N)=O)C1 (centres unmarked) [compound 467]
123	CNC(=O)C1CCN(Cc2ncc(-c3cccc(-c4cccc(-c5cnc(CC6CCN(C(=O)NC)C6)c(OC)n5)c4Cl)c3Cl)nc2OC)C1 (centres unmarked) [compound 468]
260	COc1nc(-c2cccc(-c3cccc(-c4cnc(CN[C@@H]5CCC5C)c(OC)n4)c3Cl)c2Cl)cnc1CNC[C@@H]1CCC(=O)N1 (some centres unmarked) [compound 469]
94	COc1nc(-c2cccc(-c3cccc(-c4cnc(CNC5CCN(C(N)=O)CC5)c(OC)n4)c3Cl)c2Cl)cnc1CNC[C@@H]1CCC(=O)N1 [compound 470]
119	COc1nc(-c2cccc(-c3cccc(-c4cnc(CNC[C@@H]5CCC(=O)N5)c(OC)n4)c3Cl)c2Cl)cnc1CNCC1CCN(C(N)=O)C1 (some centres unmarked) [compound 471]
66	CNC(=O)C1CCN(Cc2ncc(-c3cccc(-c4cccc(-c5cnc(CNC[C@@H]6CCC(=O)N6)c(OC)n5)c4Cl)c3Cl)nc2OC)C1 (some centres unmarked) [compound 472]
93	COc1nc(-c2cccc(-c3cccc(-c4cnc(CN[C@@H]5CCC(C(N)=O)C5)c(OC)n4)c3Cl)c2Cl)cnc1CNC[C@@H]1CCC(=O)N1 (some centres unmarked) [compound 473]

SMILES	IC50 [pM]
COc1nc(-c2cccc(-c3cccc(-c4cnc(CN5C6COCC5C6)c(OC)n4)c3Cl)c2Cl)cnc1CN1C2COCC1C2 [compound 474]	219
